According to patent US4524073A, “β-Lactam compounds” (Beecham Group p.1.c., priority 1982, dated 1985):
≈ marks a conversion by molar mass, not a printed value.

Tests used:
[1] = test system: S.aureus Russell; assay: Antibacterial activity, S. aureus Russell (Table 2); assay type: cell-based; conditions: Staphylococcus aureus, compound alone
[2] = test system: E.coli JT39; assay: Antibacterial activity, E. coli JT39 (Table 2); assay type: cell-based; conditions: Escherichia coli, compound alone

| MIC [1] [µg/mL] | MIC [2] [µg/mL] | Compound |
| --- | --- | --- |
| 8 (≈ 27.9 µM) | 16 (≈ 55.9 µM) | COC(CNC/C=C1\O[C@@H]2CC(=O)N2[C@H]1C(=O)O)OC [Example 1, 9-N-(2,2-Dimethoxyethyl)amino deoxyclavulanate] |
| 4 (≈ 13.2 µM) | 31.2 (≈ 103 µM) | O=C(O)[C@H]1/C(=C/CNCCc2ccccn2)O[C@@H]2CC(=O)N21 [Example 4, 9-N-(2-Pyrid-2'-ylethyl)aminodeoxyclavulanic acid] |
| 8 (≈ 26.4 µM) | 31.2 (≈ 103 µM) | O=C(O)[C@H]1/C(=C/CNCCc2ccncc2)O[C@@H]2CC(=O)N21 [Example 5, 9-N-(2-Pyrid-4'-ylethyl)amino deoxyclavulanic acid] |
| 8 (≈ 25.1 µM) | 31.2 (≈ 97.7 µM) | CS(=O)(=O)NCCNC/C=C1\O[C@@H]2CC(=O)N2[C@H]1C(=O)O [Example 12, 9-N-(2-methylsulphonamidoethyl)aminodeoxyclavulanic acid] |
| 16 (≈ 48 µM) | 31.2 (≈ 93.6 µM) | CS(=O)(=O)NCCCNC/C=C1\O[C@@H]2CC(=O)N2[C@H]1C(=O)O [Example 13, 9-N-(3-Methylsulphonamidopropyl)aminodeoxyclavulanic acid] |
| 8 (≈ 26.1 µM) | 31.2 (≈ 102 µM) | O=C(O)[C@H]1/C(=C/CNCCCn2ccnc2)O[C@@H]2CC(=O)N21 [Example 18] |
| 16 (≈ 46.7 µM) | 31.2 (≈ 91.1 µM) | CCOC(CCCNC/C=C1\O[C@@H]2CC(=O)N2[C@H]1C(=O)O)OCC [Example 19, 9-N-(4,4-Diethoxybutyl)amino deoxyclavulanic acid] |
| 4 (≈ 12.2 µM) | 8 (≈ 24.4 µM) | CC(C)(CCCNC/C=C1\O[C@@H]2CC(=O)N2[C@H]1C(=O)O)[N+](=O)[O-] [Example 21, 9-N-[4-Methyl-4-nitropentyl]aminodeoxyclavulanic acid] |
| 4 (≈ 12.8 µM) | 62.5 (≈ 200 µM) | CN(C)C(=O)NCCNC/C=C1\O[C@@H]2CC(=O)N2[C@H]1C(=O)O [Example 22 (2nd compound), 9-N-(N'N'-dimethylureido)ethylaminodeoxyclavulanic acid] |
| 16 (≈ 43.7 µM) | 31.2 (≈ 85.2 µM) | O=C(O)[C@H]1/C(=C/CNCCS(=O)(=O)c2ccccc2)O[C@@H]2CC(=O)N21 [Example 23, 9-N-[2-(phenylsulphonyl)ethyl]aminodeoxyclavulanic acid] |
| 2 (≈ 5.57 µM) | 8 (≈ 22.3 µM) | O=C(CCNC/C=C1\O[C@@H]2CC(=O)N2[C@H]1C(=O)O)NCc1ccccc1 [Example 25, 9-N-(3-N-Benzylcarbamoyleth-1-yl)aminodeoxyclavulanic acid] |
| ≤ 0.5 | 8 (≈ 23.4 µM) | O=C(O)[C@H]1/C(=C/CNCCc2c[nH]c3ccccc23)O[C@@H]2CC(=O)N21 [Example 26, 9-N-(2-Indol-3'-ylethyl)aminodeoxyclavulanic acid] |
| 16 (≈ 59.4 µM) | 16 (≈ 59.4 µM) | NC(=O)CCNC/C=C1\O[C@@H]2CC(=O)N2[C@H]1C(=O)O [Example 28, 9-N-(2-carbamoylethyl)aminodeoxyclavulanic acid] |
| 4 (≈ 12.6 µM) | 16 (≈ 50.4 µM) | O=C(O)[C@H]1/C(=C/CNCCNc2ccccc2)O[C@@H]2CC(=O)N21 [Example 29, 9-N-(2-Phenylaminoethyl)aminodeoxyclavulanic acid] |
| 2 (≈ 6.28 µM) | 31.2 (≈ 98 µM) | O=C(O)[C@H]1/C(=C/CNCC(O)c2ccccc2)O[C@@H]2CC(=O)N21 (stereo partly shown) [Example 30, 9-N-(2-Hydroxy-2-phenylethyl)aminodeoxyclavulanic acid] |

| Compound | MIC [1] [µg/mL] | MIC [2] [µg/mL] |
| --- | --- | --- |
| O=C(O)[C@H]1/C(=C/CNCCCl)O[C@@H]2CC(=O)N21 [Example 2, 9-N-(2-Chloroethyl)amino-deoxyclavulanic acid] | 8 (≈ 30.7 µM) | 31.2 (≈ 120 µM) |
| CC(=O)OCCCCNC/C=C1\O[C@@H]2CC(=O)N2[C@H]1C(=O)O [Example 20, 9-N-(4-Acetoxybutyl)aminodeoxyclavulanic acid] | 16 (≈ 51.2 µM) | 31.2 (≈ 99.9 µM) |
